# System: testosterone 5α-reductase
# Test: Testosterone 5α-reductase enzymatic activity inhibitory ratio (crude rat prostate enzyme, [4-14C]-testosterone to DHT conversion, TLC)
# Type: biochemical, Wristar male rat
# Conditions: 37°C, two hours; for inhibitory effect on the testosterone 5α-reductase activity: result in words, Figs. 3-5
# Protocol: A Wristar male rat weighing 250-300 g was sacrificed by bleeding, and its prostata was excised. The prostata was cut into fragments under ice-cooling. A 0.1 M HEPES buffer solution (pH: 7.4) containing 0.25 M sucrose (the buffer solution is hereinafter referred to as buffer solution A) was added to the fragments in the amount three times the wet weight of the fragments. Using a Potter-type homogenizer made of Teflon, the mixture was homogenized. The homogenate was filtered using a stainless mesh of a 200 µ size, and then the filtrate was centrifuged at 3000 rpm (900 xg) for ten minutes. The precipitate was suspended in 2.5 parts of buffer solution A, followed by centrifuging at 3000 rpm for five minutes. The residue recovered was suspended in buffer solution A weighing 0.8 times the wet weight of the fragments to produce a crude enzyme solution. The crude enzyme solution was stored at -70°C.
# The test sample (less than 10 µl) previously prepared was added to [4-¹⁴C]-testosterone (1.5 nmol, 2.85 kBq), NADPH (0.5 µmol), and the enzyme solution (30 µl) cited above. To this was added the buffer solution A to the extent that the total volume became 100 µl, to prepare a reaction liquid. An enzymatic reaction was performed using the reaction liquid at 37°C for two hours. The enzymatic reaction was initiated by removing the reaction liquid from an ice-water-cooled bath to a 37°C warm bath. The enzymatic reaction was terminated by cooling the reaction liquid in ice-water. […]
# A radiation activity of the developed material on the TLC plate cited above was measured by means of an AMBIS image analyzer.
# Two spots shown in a chromatogram were subjected to readings of the radiation activities identified by their positions corresponding to testosterone (T) and dihydrotestosterone (DHT) respectively. […] Defining the conversion rate in the presence of the negative control as 100, a percentage of the conversion rate in the presence of the sample was calculated to determine the degree of the enzymatic activity inhibitory ratio of the sample. […]
inhibitory effect on the testosterone 5α-reductase activity,"IC50 (Fig. 1, 120 min, read-out: amount exhibiting a inhibitory ratio of 50%)",SMILES
considerable high inhibitory effect,–,C=C(C)[C@H]1CC=C(C)CC1 [d-limonene]
–,500 µM,CC1(C)[C@@H](O)CC[C@]2(C)[C@H]3C(=O)C=C4[C@@H]5C[C@@](C)(C(=O)O)CC[C@]5(C)CC[C@@]4(C)[C@]3(C)CC[C@@H]12 [sodium β-glycyrrhetinic acid]
no inhibitory effect,–,C=C[C@H]1[C@H](O[C@@H]2O[C@H](CO)[C@@H](O)[C@H](O)[C@H]2O)OC=C2C(=O)OCC[C@]21O [swertiamarin]

# Source: EP0467660A2, “Use of d-limonenes as testosterone-5-alpha-reductase inhibitor and as hair grower” (Miyauchi, Yutaka, priority 1990, dated 1992)
